Target: T1, ERR1 (also known as ERR-α or ERR-1) (Homo sapiens, UniProt P11474)
T1 sequence (P11474 193-421 limits assumed): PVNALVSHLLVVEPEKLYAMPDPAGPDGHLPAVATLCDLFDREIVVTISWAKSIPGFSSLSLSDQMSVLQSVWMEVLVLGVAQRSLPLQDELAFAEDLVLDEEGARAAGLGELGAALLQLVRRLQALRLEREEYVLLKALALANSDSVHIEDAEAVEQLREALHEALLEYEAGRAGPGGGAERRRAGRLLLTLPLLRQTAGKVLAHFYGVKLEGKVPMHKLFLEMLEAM
Experiment: TR-FRET assay (disruption of co-activator peptide binding to ERR1 LBD)
Format: biochemical
Settings: 6 nM 6His-ERR1LBD, 6 nM GST-SRC-2 peptide; average of 3 independent experiments
Summary of the method: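 Homogeneous TR-FRET measuring displacement of GST-hSRC2 co-activator peptide (6 nM) from His-tagged ERR1 LBD (6 nM), detected with α-GST Eu cryptate (30 nM) and α-His-XL665 (7.5 nM). Buffer 25 mM Tris pH 8, 2.5 mM Hepes, 20 mM KCl, 1 mM DTT, 0.05 mg/mL delipidated BSA; equilibration 4-18 h at 25° C. Hyperbolic dose-response fit, mean of 3 experiments.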

Structure (SMILES)	EC50 [nM]
CN1CCC(C(=O)O)(N2C(=O)S/C(=C\c3ccc4c(cnn4Cc4ccc(Cl)cc4C(F)(F)F)c3)C2=O)CC1 [Compound 220, 4-[(5Z)-5-({1-[4-Chloro-2-(trifluoromethyl)benzyl]-1H-indazol-5-yl}methylidene)-2,4-dioxo-1,3-thiazolidin-3-yl]-1-methylpiperidine-4-carboxylic acid]	74
COC(=O)[C@H](COC(C)(C)C)N1C(=O)S/C(=C\c2ccc3c(cnn3Cc3ccc(Cl)cc3C(F)(F)F)c2)C1=O [Compound 210, Methyl (2S)-3-tert-butoxy-2-[(5Z)-5-({1-[4-chloro-2-(trifluoromethyl)benzyl]-1H-indazol-5-yl}methylidene)-2,4-dioxo-1,3-thiazolidin-3-yl]propanoate]	260
O=C(O)c1ccc(CN2C(=O)S/C(=C\c3ccc4c(cnn4Cc4ccc(Cl)cc4C(F)(F)F)c3)C2=O)cc1 [Compound 377, 4-{[(5Z)-5-({1-[4-Chloro-2-(trifluoromethyl)benzyl]-1H-indazol-5-yl}methylidene)-2,4-dioxo-1,3-thiazolidin-3-yl]methyl}benzoic acid]	67
O=C1S/C(=C\c2ccc3c(cnn3Cc3ccc(C(F)(F)F)cc3C(F)(F)F)c2)C(=O)N1[C@@H]1CCNC[C@H]1O (relative stereo) [Compound 271, (5Z)-5-({1-[2,4-Bis(trifluoromethyl)benzyl]-1H-indazol-5-yl}methylidene)-3-[trans-3-hydroxypiperidin-4-yl]-1,3-thiazolidine-2,4-dione]	38
CN(C)CCCN1C(=O)S/C(=C\c2ccc3c(ccn3Cc3ccc(Cl)cc3C(F)(F)F)c2)C1=O [Compound 244, (5Z)-5-[(1-{[4-Chloro-2-(trifluoromethyl)phenyl]methyl}-1H-indol-5-yl)methylidene]-3-[3-(dimethylamino)-propyl]-1,3-thiazolidine-2,4-dione]	50
CCN1CCC(N2C(=O)S/C(=C\c3ccc4c(cnn4Cc4ccc(Cl)cc4C(F)(F)F)c3)C2=O)CC1 [Compound 118, (5Z)-5-({1-[4-Chloro-2-(trifluoromethyl)benzyl]-1H-indazol-5-yl}methylidene)-3-(1-ethylpiperidin-4-yl)-1,3-thiazolidine-2,4-dione]	25
CC(=O)Nc1nc(C)c(S(=O)(=O)NCCN2C(=O)S/C(=C\c3ccc4c(cnn4Cc4ccc(Cl)cc4C(F)(F)F)c3)C2=O)s1 [Compound 420, N-[5-({2-[(5Z)-5-({1-[4-Chloro-2-(trifluoromethyl)benzyl]-1H-indazol-5-yl}methylidene)-2,4-dioxo-1,3-thiazolidin-3-yl]ethyl}sulfamoyl)-4-methyl-1,3-thiazol-2-yl]acetamide]	28
O=C1S/C(=C\c2ccc3c(cnn3Cc3ccc(Cl)cc3C(F)(F)F)c2)C(=O)N1Cc1nccn1Cc1ncc[nH]1 [Compound 404, (5Z)-5-({1-[4-Chloro-2-(trifluoromethyl)benzyl]-1H-indazol-5-yl}methylidene)-3-{[1-(1H-imidazol-2-ylmethyl)-1H-imidazol-2-yl]methyl}-1,3-thiazolidine-2,4-dione]	21
O=C1S/C(=C\c2ccc3c(ccn3Cc3ccc(Cl)cc3C(F)(F)F)c2)C(=O)N1C[C@H]1COCCN1 [Compound 256, (5Z)-5-({1-[4-Chloro-2-(trifluoromethyl)benzyl]-1H-indol-5-yl}methylidene)-3-[(3S)-morpholin-3-ylmethyl]-1,3-thiazolidine-2,4-dione]	110
CN(CCN1C(=O)S/C(=C\c2ccc3c(cnn3Cc3ccc(Cl)cc3C(F)(F)F)c2)C1=O)S(C)(=O)=O [Compound 397, N-{2-[(5Z)-5-({1-[4-Chloro-2-(trifluoromethyl)benzyl]-1H-indazol-5-yl}methylidene)-2,4-dioxo-1,3-thiazolidin-3-yl]ethyl}-N-methylmethanesulfonamide]	23
O=C1S/C(=C\c2ccc3c(cnn3Cc3ccc(Cl)cc3C(F)(F)F)c2)C(=O)N1Cc1cc(O)no1 [Compound 138, (5Z)-5-({1-[4-Chloro-2-(trifluoromethyl)benzyl]-1H-indazol-5-yl}methylidene)-3-[(3-hydroxyisoxazol-5-yl)methyl]-1,3-thiazolidine-2,4-dione]	42
CN1C[C@@H](N2C(=O)S/C(=C\c3ccc4c(cnn4Cc4ccc(Cl)cc4C(F)(F)F)c3)C2=O)[C@@H](F)C1 (relative stereo) [Compound 323, (5Z)-5-({1-[4-Chloro-2-(trifluoromethyl)benzyl]-1H-indazol-5-yl}methylidene)-3-[cis-4-fluoro-1-methylpyrrolidin-3-yl]-1,3-thiazolidine-2,4-dione]	54
N=C(N)NOCCN1C(=O)S/C(=C\c2ccc3c(ccn3Cc3ccc(Cl)cc3C(F)(F)F)c2)C1=O [Compound 257, 1-{2-[(5Z)-5-({1-[4-Chloro-2-(trifluoromethyl)benzyl]-1H-indol-5-yl}methylidene)-2,4-dioxo-1,3-thiazolidin-3-yl]ethoxy}guanidine]	74
COc1ccc(Cn2ncc3cc(/C=C4\SC(=O)N(C5CCC(C(=O)NS(C)(=O)=O)CC5)C4=O)ccc32)c(C(F)(F)F)c1 (stereo not shown) [Compound 24, 4-[(5Z)-5-({1-[4-Methoxy-2-(trifluoromethyl)benzyl]-1H-indazol-5-yl}methylidene)-2,4-dioxo-1,3-thiazolidin-3-yl]-N-(methylsulfonyl) cyclohexanecarboxamide]	12
CN(CCO)CCN1C(=O)S/C(=C\c2ccc3c(cnn3Cc3ccc(Cl)cc3C(F)(F)F)c2)C1=O [Compound 51, (5Z)-5-({1-[4-Chloro-2-(trifluoromethyl)benzyl]-1H-indazol-5-yl}methylidene)-3-{2-[(2-hydroxyethyl)(methyl)amino]ethyl}-1,3-thiazolidine-2,4-dione]	26

More lines, now with the values ahead:

EC50 [nM]	Structure (SMILES)
35	N#Cc1nn(Cc2ccc(Cl)cc2C(F)(F)F)c2ccc(/C=C3\SC(=O)N(CC(=O)O)C3=O)cc12 [Compound 416, [(5Z)-5-({1-[4-Chloro-2-(trifluoromethyl)benzyl]-3-cyano-1H-indazol-5-yl}methylidene)-2,4-dioxo-1,3-thiazolidin-3-yl]acetic acid]
170	O=C1S/C(=C\c2ccc3c(cnn3Cc3ccc(F)cc3C(F)(F)F)c2)C(=O)N1[C@@H]1CNCC[C@H]1O (relative stereo) [Compound 281, (5Z)-5-({1-[4-Fluoro-2-(trifluoromethyl)-benzyl]-1H-indazol-5-yl}methylidene)-3-[trans-4-hydroxypiperidin-3-yl]-1,3-thiazolidine-2,4-dione]
45	CN1CCO[C@H](CN2C(=O)S/C(=C\c3ccc4c(cnn4Cc4ccc(Cl)cc4C(F)(F)F)c3)C2=O)C1 [Compound 192, (5Z)-5-({1-[4-Chloro-2-(trifluoromethyl)benzyl]-1H-indazol-5-yl}methylidene)-3-{[(2S)-4-methylmorpholin-2-yl]methyl}-1,3-thiazolidine-2,4-dione]
45	O=C1S/C(=C\c2ccc3c(cnn3Cc3ccc(Cl)cc3C(F)(F)F)c2)C(=O)N1C1(C(=O)O)CCC1 [Compound 235, 1-[(5Z)-5-({1-[4-Chloro-2-(trifluoromethyl)benzyl]-1H-indazol-5-yl}methylidene)-2,4-dioxo-1,3-thiazolidin-3-yl]cyclobutanecarboxylic acid]
4	CS(=O)(=O)NN1C(=O)S/C(=C\c2ccc3c(c2)c(I)nn3Cc2ccc(Cl)cc2C(F)(F)F)C1=O [Compound 367, N-[(5Z)-5-({1-[4-Chloro-2-(trifluoromethyl)benzyl]-3-iodo-1H-indazol-5-yl}methylidene)-2,4-dioxo-1,3-thiazolidin-3-yl]methanesulfonamide]
700	NC1(CCN2C(=O)S/C(=C\c3ccc4c(cnn4Cc4ccc(C(F)(F)F)cc4C(F)(F)F)c3)C2=O)CCOCC1 [Compound 313, (5Z)-3-[2-(4-Aminotetrahydro-2H-pyran-4-yl)ethyl]-5-({1-[2,4-bis(trifluoromethyl)benzyl]-1H-indazol-5-yl}methylidene)-1,3-thiazolidine-2,4-dione]
72	COc1ccc(Cn2ncc3cc(/C=C4\SC(=O)N(CCN5CCN(C)CC5)C4=O)ccc32)c(C(F)(F)F)c1 [Compound 12, (5Z)-5-[(1-{[4-(Methyloxy)-2-(trifluoromethyl)phenyl]methyl}-1H-indazol-5-yl)methylidene]-3-[2-(4-methylpiperazin-1-yl)ethyl]-1,3-thiazolidine-2,4-dione]
16	O=C1S/C(=C\c2ccc3c(cnn3Cc3ccc(Cl)cc3C(F)(F)F)c2)C(=O)N1C1CCNCC1 [Compound 113, (5Z)-5-({1-[4-Chloro-2-(trifluoromethyl)benzyl]-1H-indazol-5-yl}methylidene)-3-piperidin-4-yl-1,3-thiazolidine-2,4-dione]
31	CN1CC[C@@H](N2C(=O)S/C(=C\c3ccc4c(cnn4Cc4ccc(Cl)cc4C(F)(F)F)c3)C2=O)C1 [Compound 144, (5Z)-5-({1-[4-Chloro-2-(trifluoromethyl)benzyl]-1H-indazol-5-yl}methylidene)-3-[(3R)-1-methylpyrrolidin-3-yl]-1,3-thiazolidine-2,4-dione]
67	COc1ccc(Cn2ncc3cc(/C=C4\SC(=O)N(C5CCNCC5)C4=O)ccc32)c(C(F)(F)F)c1 [Compound 26, (5Z)-5-({1-[4-Methoxy-2-(trifluoromethyl)benzyl]-1H-indazol-5-yl}methylidene)-3-piperidin-4-yl-1,3-thiazolidine-2,4-dione]
